Reference: patent publication US8217071B2, “Use of inhibitors of the degradation of p27, in particular Argyrin and derivatives thereof, for the treatment of proliferative diseases” (Helmholtz Zentrum für Infektionsforschung GmbH, priority 2007, dated 2012)
In brackets after ≈: the same amount, converted by molar mass. Numbered stars: 1 amine (or outer) side, 2 acyl side, 3 side chain; on linkers, the order of the positions; unused ones are H or OH. Square brackets hold non-standard residues; d marks the D form. Peptide text beside a SMILES is read from it. dAla(ψthiazole) = C[C@@H](N[*:1])c1nc(C(=O)[*:2])cs1; Trp(4-OMe) = COc1cccc2[nH]cc(C[C@H](N)C(=O)O)c12; Dha = C=C(N)C(=O)O; Sar = CNCC(=O)O

Tests used:
SW-480 (colon cancer) = assay: MIC (visual), serial dilution, SW-480; format: cell-based, human; conditions: minimal concentration of a serial dilution exhibiting a visual effect
Text: The following table summarizes the effects of argyrin-derivatives A to H on two cancer cell lines, H15 (cervix carcinoma) and SW-480 (colon cancer). In order to test the efficacy, a p27-GFP-clone was used.

[1] = tested on: SW-480 (colon cancer cell line); assay: MTT-test proliferation of SW-480; format: cell-based, human; conditions: half-maximal inhibition of proliferation
Protocol: MTT assays were done as previously described (Sasse, F. et al. Argyrins, immunosuppressive cyclic peptides from myxobacteria. I. Production, isolation, physico-chemical and biological properties. J Antibiot (Tokyo) 55, 543-51 (2002)). TUNEL staining of tissue sections was performed on 10 micrometer sections which were deparafinised and treated as recommended by the manufacturer. (In Situ Cell Death Detection Kit, Fluorescein; ROCHE, Cat #11 684 795 910). Flow cytometric analysis of cultured cells was done using a Becton Dickinson fluorescence cytometer as previously described (Malek, N. P. et al. A mouse knock-in model exposes sequential proteolytic pathways that regulate p27^Kip1 in G1 and S phase. Nature 413, 323-7 (2001)). Analysis of the distribution of cells in the cell cycle and the sub-G1 fraction was done using Cell Quest software. A histone-associated-DNA-fragments ELISA was used to determine the number of apoptotic cells according to manufacturers instructions (Roche #11 774425001).

p27^kip1 = p27^kip1 expression time course by western blotting; format: cell-based, human; conditions: SW480, HCT116 and HeLa cells
Protocol: (§1) The expression levels of p27^kip1 were determined at the indicated timepoints by western blotting and normalized against actin expression which was used as an internal control.
(§2) Immunohistochemical staining of mouse tumour tissue, western Blotting and immunofluorescence experiments were done as previously described (Timmerbeul, I. et al. Testing the importance of p27 degradation by the SCFskp2 pathway in murine models of lung and colon cancer. Proc Natl Acad Sci USA 103, 14009-14 (2006). Kossatz, U. et al. C-terminal phosphorylation controls the stability and function of p27^kip1. Embo J 25, 5159-70 (2006).). The following antibodies were used: p27 (Cat. No. K25020-150; Transduction Labs), p21 (N20; Santa Cruz), p53 (FL-393; Santa Cruz), NfKB (C-20; Santa Cruz), Bax (P-19; Santa Cruz), Alexa fluor 488 (# A11001; Invitrogen), 20S-proteasome subunit beta 2 (Z) (PW9300; Bio-mol, for human cells), 20S-proteasome subunit beta 2 (Z) (PW8145; BIO TREND, for mouse cells); 20S proteasome subunit beta 1(Y) (PW8140; BIO TREND), 20S proteasome subunit beta 5 (PW8895; BIO TREND); PECAM Antibody clone MEC 13.3 (#550274; BD Pharmingen).

p53, p21, BAX and NfκB = assay: Accumulation of proteasome substrates by western blotting; format: cell-based, human; conditions: SW480 and HCT116 cell lines
Protocol: as §1, §2

20S proteasome = 20S proteasome activity in peripheral blood cells after i.p. injection; format: in vivo, mouse; conditions: peripheral blood lymphocytes
Protocol: The inventors therefore tested if Argyrin A induced p27^kip1 stabilization would be beneficial in the treatment of human colon cancer cell derived tumour xenografts. To analyze this the inventors first tested if Argyrin A was active after application in vivo. After intraperitoneal injection of Argyrin A, 20S proteasome was isolated from peripheral blood lymphocytes at different time points after injection. […] Based on this finding the inventors treated tumour bearing mice with 0.15 mg Argyrin per kilogram bodyweight injected intraperitoneally every three days.
At the indicated timepoints 20S proteasome was isolated from peripheral blood cells and the activity of the different proteasome subunits was determined as described (FIG. 1d). b) SW480 colon carcinoma cell lines mixed with matrigel were injected under the skin of nu/nu mice to establish xenotransplant tumours. Treatment with Argyrin A or bortezomib was started when these tumours reached a volume of 200 mm^3. […] The activity of the respective proteasome subunits was determined as described previously (FIG. 1d). e) Determination of the number of p27^kip1 positive cells in tumour tissue after Argyrin A treatment. […] At least 200 cells were counted on five independent sections to quantitate the number of apoptotic cells. […]
Proteasome assays using proteasome purified from cells or tissues were carried out in a 100 μL reaction volume containing 20 μg proteasome extract, 50 mmol/L EDTA and 60 μmol/L fluorogenic substrate (chymotrypsin-like (CT-L), trypsin-like (T-L) or caspase-like (C-L)) in ATP/DTT lysis buffer at 37° C. […] The rate of cleavage of fluorogenic peptide substrates was determined by monitoring the fluorescence of released amonomethylcoumarin using a Victor 1420 Multilabel counter (Wallac) at an excitation wavelength of 395 nm and emission wavelength of 460 nm over a period of 60 min.

[2] = tested on: HCT116 colon carcinoma xenotransplant tumours; assay: HCT116 xenotransplant tumours in nu/nu mice; format: in vivo, mouse; conditions: HCT116 derived tumor-xenografts
Protocol: Treatment with Argyrin A or bortezomib was started when these tumours reached a volume of 200 mm3. […] (n=8 Argyrin A, n=8 Bortezomib, n=6 PBS/EtOH) b) The pictures show the macroscopic appearance of a xenotransplant tumour after 10 days of treatment with Argyrin A. Note the large necrotic centre of the explanted tumour. c) After a single injection of Argyrin A (0.15 mg/kg bodyweight) or bortezomib (1.0 mg/kg bodyweight) tumours were explanted at the indicated time points and blood vessels in the tumour tissue were co-stained for CD31 and p27. […] Note the swelling of the endothelial cell (“E”) and the occlusion of the lumen (“L”) by erythrocytes after 90 minutes of Argyrin A treatment. The arrow marks the detachment of endothelial cells after 48 h of Argyrin A treatment. […] Tube length (f) and blood vessel like […] structures were determined using photographs of HUVEC cultures. The micrographs show representative examples of HUVEC cultures under the indicated conditions.
1×10^7 SW480 cells or HCT116 cells (in 100 microliters DMEM medium and 100 microliters matrigel) were s.c. injected into the flanks of NMRI nu/nu mice. Tumours grew for approx. 18 days until they reached appropriate size (200 mm3). Tumour size was measured with a digital calliper and calculated with the help of the following formula: (Length×width2)*π/6. […]

C=C1NC(=O)[C@@H](C)NC(=O)CNC(=O)[C@H](Cc2c[nH]c3cccc(OC)c23)NC(=O)[C@H](Cc2c[nH]c3ccccc23)NC(=O)c2csc(n2)[C@@H](C)NC(=O)CN(C)C1=O [Argyrin A] (cyclo(W[Trp(4-OMe)]G[dA][Dha][Sar][dAla(ψthiazole)]))
MIC (visual) SW-480 (SW-480 (colon cancer)): 4 µg/mL (≈ 4.85 µM)
IC-50 SW-480 [1]: Ca. 0.05 μg/ml
cellular p27^kip1 levels (p27^kip1): increase
levels of proteasome substrates p53, p21, BAX and NfκB (p53, p21, BAX and NfκB): accumulated
time at which all activities returned to base-line levels post injection (20S proteasome; i.p.): 72 h
time of maximum inhibitory activity post injection (20S proteasome; i.p.): 48 h
proteasome activities after i.p. application (20S proteasome; mice): inhibited all proteasome activities
tumour volume [2]: significant reduction
